A short description of the data set: cn = amount concentration of the nth substance listed, in mol/dm3. The note with it: Liquid, Taylor dispersion method.

`OC[C@H]1O[C@@](CO)(O[C@H]2O[C@H](CO)[C@@H](O)[C@H](O)[C@H]2O)[C@@H](O)[C@@H]1O` [D-sucrose] + O: the binary diffusion coefficient (298.15 K, c1 = 0.1) stood at 5.26e-10 m2/s.

For `[Cl-].[K+]` [potassium chloride] + O, the binary diffusion coefficient (298.15 K, c1 = 0.1) is 1.81e-09 m2/s.

For `OC[C@H]1O[C@@H]2O[C@H]3[C@H](O)[C@@H](O)[C@@H](O[C@H]4[C@H](O)[C@@H](O)[C@@H](O[C@H]5[C@H](O)[C@@H](O)[C@@H](O[C@H]6[C@H](O)[C@@H](O)[C@@H](O[C@H]7[C@H](O)[C@@H](O)[C@@H](O[C@H]8[C@H](O)[C@@H](O)[C@@H](O[C@H]1[C@H](O)[C@H]2O)O[C@@H]8CO)O[C@@H]7CO)O[C@@H]6CO)O[C@@H]5CO)O[C@@H]4CO)O[C@@H]3CO` [β-cyclodextrin] + O, the binary diffusion coefficient is, setting by setting: (298.15 K, c1 = 0.002) 3.24e-10 m2/s; (298.15 K, c1 = 0.004) 3.23e-10 m2/s; (298.15 K, c1 = 0.006) 3.21e-10 m2/s; (298.15 K, c1 = 0.008) 3.18e-10 m2/s; (303.15 K, c1 = 0.002) 3.89e-10 m2/s; (303.15 K, c1 = 0.004) 3.88e-10 m2/s. Further, the binary diffusion coefficient (303.15 K, c1 = 0.006) came to 3.81e-10 m2/s; the binary diffusion coefficient (303.15 K, c1 = 0.008) turned out to be 3.78e-10 m2/s; the binary diffusion coefficient (308.15 K, c1 = 0.002) came out at 4.3e-10 m2/s; the binary diffusion coefficient (308.15 K, c1 = 0.004) was found to be 4.28e-10 m2/s; the binary diffusion coefficient (308.15 K, c1 = 0.006) came to 4.27e-10 m2/s; the binary diffusion coefficient (308.15 K, c1 = 0.008) was 4.23e-10 m2/s. For the same compound, the binary diffusion coefficient was found to be 4.56e-10 m2/s (312.15 K, c1 = 0.002); 4.54e-10 m2/s (312.15 K, c1 = 0.004); 4.54e-10 m2/s (312.15 K, c1 = 0.006); 4.53e-10 m2/s (312.15 K, c1 = 0.008).
